Results on seven compounds are retold here after PubChem BioAssay AID248 (DTP/NCI, 2004).

This test concerns L1210 leukemia ip in BDF1 mice, survival T/C. The test is described as follows: NCI In Vivo Anticancer Drug Screen. Data for tumor model L1210 Leukemia (intraperitoneal) in B6D2F1 (BDF1) mice. The conditions noted are these: higher = longer survival. In outline: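 Antitumor effect is assessed in tumor-bearing animals. Survival in the compound arm is compared with a vehicle-dosed control arm and expressed as their quotient.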

Where [1] appears, read: endpoint: mean survival time, dose: 50.0 mg/kg/injection, schedule: Q01DX009 (ip), vehicle: Klucel (hydroxypropylcellulose) (HPC).
Setting [2] is: endpoint: mean survival time, dose: 100.0 mg/kg/injection, schedule: Q04DX003 (ip), vehicle: saline.
Where [3] appears, read: endpoint: mean survival time, dose: 200.0 mg/kg/injection, schedule: Q04DX003 (ip), vehicle: saline.
The mark [4] stands for this setting: endpoint: mean survival time, dose: 400.0 mg/kg/injection, schedule: Q01DX009 (ip), vehicle: Klucel (hydroxypropylcellulose) (HPC).
[5] abbreviates: endpoint: mean survival time, dose: 400.0 mg/kg/injection, schedule: Q04DX003 (ip), vehicle: saline.
Setting [6] is: endpoint: mean survival time, dose: 100.0 mg/kg/injection, schedule: Q01DX009 (ip), vehicle: Klucel (hydroxypropylcellulose) (HPC).
Setting [7] is: endpoint: mean survival time, dose: 200.0 mg/kg/injection, schedule: Q01DX009 (ip), vehicle: Klucel (hydroxypropylcellulose) (HPC).

Values joined by “and” are separate entries in the source; they are usually repeats but may differ in a detail not shown here. Equal entries are not always repeated. Inconclusive results and toxic doses are left out.

For the compound `NCCc1ccc(O)c(O)c1`, the T/C (endpoint: mean survival time, dose: 6.25 mg/kg/injection, schedule: Q03HX024 (ip), vehicle: saline) was 101 % of control; the T/C (endpoint: mean survival time, dose: 12.5 mg/kg/injection, schedule: Q03HX004 (ip), vehicle: saline) was 113 % of control; the T/C (endpoint: mean survival time, dose: 12.5 mg/kg/injection, schedule: Q03HX024 (ip), vehicle: saline) was 87 % of control; the T/C (endpoint: mean survival time, dose: 25.0 mg/kg/injection, schedule: Q01DX001 (ip), vehicle: saline) was 104 % of control; the T/C (endpoint: mean survival time, dose: 25.0 mg/kg/injection, schedule: Q01DX009 (ip), vehicle: Klucel (hydroxypropylcellulose) (HPC)) was 105 % of control; the T/C (endpoint: mean survival time, dose: 25.0 mg/kg/injection, schedule: Q03HX004 (ip), vehicle: saline) was 113 % of control. Besides, the T/C is 106 % of control (endpoint: mean survival time, dose: 25.0 mg/kg/injection, schedule: Q03HX024 (ip), vehicle: saline); 94 % of control (endpoint: mean survival time, dose: 25.0 mg/kg/injection, schedule: Q04DX003 (ip), vehicle: saline); 100 % of control (endpoint: mean survival time, dose: 50.0 mg/kg/injection, schedule: Q01DX001 (ip), vehicle: saline); 114 % of control under setting [1]; 118 % of control and 119 % of control (endpoint: mean survival time, dose: 50.0 mg/kg/injection, schedule: Q01DX009 (ip), vehicle: saline); 124 % of control (endpoint: mean survival time, dose: 50.0 mg/kg/injection, schedule: Q03HX004 (ip), vehicle: saline). Further, the T/C is 115 % of control (endpoint: mean survival time, dose: 50.0 mg/kg/injection, schedule: Q03HX024 (ip), vehicle: saline); 94 % of control (endpoint: mean survival time, dose: 50.0 mg/kg/injection, schedule: Q04DX003 (ip), vehicle: saline); 108 % of control (endpoint: mean survival time, dose: 100.0 mg/kg/injection, schedule: Q01DX001 (ip), vehicle: saline); 115 % of control (endpoint: mean survival time, dose: 100.0 mg/kg/injection, schedule: Q03HX024 (ip), vehicle: saline); 97 % of control under setting [2]; 104 % of control (endpoint: mean survival time, dose: 150.0 mg/kg/injection, schedule: Q01DX009 (ip), vehicle: saline). In addition, the T/C (endpoint: mean survival time, dose: 200.0 mg/kg/injection, schedule: Q01DX001 (ip), vehicle: saline) was 99 % of control; the T/C under setting [3] was 101 % of control; the T/C (endpoint: mean survival time, dose: 400.0 mg/kg/injection, schedule: Q01DX001 (ip), vehicle: saline) is 115 % of control; the T/C under setting [4] is 152 % of control; the T/C (endpoint: mean survival time, dose: 400.0 mg/kg/injection, schedule: Q01DX009 (ip), vehicle: saline) is 123 % of control; the T/C under setting [5] was 94 % of control. Moreover, the T/C is 103 % of control (endpoint: mean survival time, dose: 600.0 mg/kg/injection, schedule: Q01DX009 (ip), vehicle: saline); 122 % of control (endpoint: mean survival time, dose: 800.0 mg/kg/injection, schedule: Q01DX009 (ip), vehicle: saline); 108 % of control (endpoint: mean survival time, dose: 800.0 mg/kg/injection, schedule: Q04HX003 (ip), vehicle: saline); 104 % of control (endpoint: mean survival time, dose: 1600.0 mg/kg/injection, schedule: Q04HX003 (ip), vehicle: saline); 92 % of control (endpoint: median survival time, dose: 20.0 mg/kg/injection, schedule: Q04HX036 (ip), vehicle: saline); 98 % of control (endpoint: median survival time, dose: 40.0 mg/kg/injection, schedule: Q01DX009 (sc), vehicle: saline). Further, the T/C is, setting by setting: (endpoint: median survival time, dose: 40.0 mg/kg/injection, schedule: Q04HX020 (ip), vehicle: saline) 114 % of control; (endpoint: median survival time, dose: 40.0 mg/kg/injection, schedule: Q04HX036 (ip), vehicle: saline) 106 % of control; (endpoint: median survival time, dose: 40.0 mg/kg/injection, schedule: Q11DX017 (ip), vehicle: saline) 104 % of control; (endpoint: median survival time, dose: 40.0 mg/kg/injection, schedule: Q12HX018 (ip), vehicle: saline) 114 % of control; (endpoint: median survival time, dose: 80.0 mg/kg/injection, schedule: Q01DX009 (ip), vehicle: saline) 118 % of control; (endpoint: median survival time, dose: 80.0 mg/kg/injection, schedule: Q01DX009 (oral), vehicle: saline) 97 % of control. For the same compound, the T/C by setting is: (endpoint: median survival time, dose: 80.0 mg/kg/injection, schedule: Q01DX009 (sc), vehicle: saline) 104 % of control; (endpoint: median survival time, dose: 80.0 mg/kg/injection, schedule: Q02DX005 (ip), vehicle: saline) 111 % of control; (endpoint: median survival time, dose: 80.0 mg/kg/injection, schedule: Q04HX020 (ip), vehicle: saline) 123 % of control; (endpoint: median survival time, dose: 80.0 mg/kg/injection, schedule: Q04HX036 (ip), vehicle: saline) 122 % of control; (endpoint: median survival time, dose: 80.0 mg/kg/injection, schedule: Q11DX017 (ip), vehicle: saline) 120 % of control; (endpoint: median survival time, dose: 80.0 mg/kg/injection, schedule: Q12HX010 (ip), vehicle: saline) 121 % of control. The T/C reads like this: (endpoint: median survival time, dose: 160.0 mg/kg/injection, schedule: Q01DX009 (oral), vehicle: saline) 104 % of control; (endpoint: median survival time, dose: 160.0 mg/kg/injection, schedule: Q01DX009 (sc), vehicle: saline) 96 % of control; (endpoint: median survival time, dose: 160.0 mg/kg/injection, schedule: Q04HX036 (ip), vehicle: saline) 108 % of control; (endpoint: median survival time, dose: 320.0 mg/kg/injection, schedule: Q01DX009 (oral), vehicle: saline) 105 % of control; (endpoint: median survival time, dose: 320.0 mg/kg/injection, schedule: Q01DX009 (sc), vehicle: saline) 103 % of control; (endpoint: median survival time, dose: 320.0 mg/kg/injection, schedule: Q02DX005 (ip), vehicle: saline) 122 % of control. The T/C was 106 % of control (endpoint: median survival time, dose: 640.0 mg/kg/injection, schedule: Q01DX009 (oral), vehicle: saline); 103 % of control (endpoint: median survival time, dose: 640.0 mg/kg/injection, schedule: Q01DX009 (sc), vehicle: saline); 124 % of control (endpoint: median survival time, dose: 640.0 mg/kg/injection, schedule: Q02DX005 (ip), vehicle: saline).

Take `NC1C(=O)NC(=O)NC1=O`: the T/C is 100 % of control (endpoint: mean survival time, dose: 50.0 mg/kg/injection, schedule: Q01DX009 (ip), vehicle: carboxymethylcellulose (CMC)); 103 % of control (endpoint: mean survival time, dose: 100.0 mg/kg/injection, schedule: Q01DX009 (ip), vehicle: carboxymethylcellulose (CMC)); 102 % of control (endpoint: mean survival time, dose: 100.0 mg/kg/injection, schedule: Q04DX002 (ip), vehicle: Klucel (hydroxypropylcellulose) (HPC)); 92 % of control (endpoint: mean survival time, dose: 200.0 mg/kg/injection, schedule: Q01DX009 (ip), vehicle: carboxymethylcellulose (CMC)); 104 % of control (endpoint: mean survival time, dose: 200.0 mg/kg/injection, schedule: Q04DX002 (ip), vehicle: Klucel (hydroxypropylcellulose) (HPC)).

For `Nc1ncnc2sc3c(c12)CCc1ccccc1-3`, the T/C is 92 % of control under setting [1], 98 % of control under setting [6] and 95 % of control under setting [7].

For the compound `Cc1ccc(S(=O)(=O)OCCN(CCOS(=O)(=O)c2ccc(C)cc2)c2cccc(Cl)c2)cc1`, the T/C by setting is: (endpoint: mean survival time, dose: 50.0 mg/kg/injection, schedule: Q01DX001 (ip), vehicle: carboxymethylcellulose (CMC)) 98 % of control; (endpoint: mean survival time, dose: 100.0 mg/kg/injection, schedule: Q01DX001 (ip), vehicle: carboxymethylcellulose (CMC)) 98 % of control; (endpoint: mean survival time, dose: 200.0 mg/kg/injection, schedule: Q01DX001 (ip), vehicle: carboxymethylcellulose (CMC)) 109 % of control; (endpoint: mean survival time, dose: 400.0 mg/kg/injection, schedule: Q01DX001 (ip), vehicle: carboxymethylcellulose (CMC)) 114 % of control.

On to `O=C(CCC(=O)c1cccc([N+](=O)[O-])c1)NNc1ccc([N+](=O)[O-])cc1[N+](=O)[O-]`, for which the T/C runs as follows: (endpoint: mean survival time, dose: 100.0 mg/kg/injection, schedule: Q01DX009 (ip), vehicle: saline with Tween-80) 95 % of control; (endpoint: mean survival time, dose: 200.0 mg/kg/injection, schedule: Q01DX009 (ip), vehicle: saline with Tween-80) 105 % of control; (endpoint: mean survival time, dose: 400.0 mg/kg/injection, schedule: Q01DX009 (ip), vehicle: saline with Tween-80) 92 % of control.

In the case of `C1CCC2CC(NC3=NCCO3)CCC2C1` (stereo not given), the T/C was 96 % of control (endpoint: mean survival time, dose: 0.19 mg/kg/injection, schedule: Q01DX009 (ip), vehicle: Klucel (hydroxypropylcellulose) (HPC)); 98 % of control (endpoint: mean survival time, dose: 0.39 mg/kg/injection, schedule: Q01DX009 (ip), vehicle: Klucel (hydroxypropylcellulose) (HPC)); 98 % of control and 113 % of control (endpoint: mean survival time, dose: 0.78 mg/kg/injection, schedule: Q01DX009 (ip), vehicle: Klucel (hydroxypropylcellulose) (HPC)).

In the case of `CC(=O)Oc1c(Br)c(-c2c(C)cc(C)c(Br)c2C)c(OC(C)=O)c(Br)c1-c1c(C)cc(C)c(Br)c1C`, the T/C by setting is: under setting [6], 97 % of control; under setting [2], 113 % of control; under setting [7], 96 % of control; under setting [3], 95 % of control; under setting [4], 97 % of control; under setting [5], 101 % of control.
